Laboratory results published in patent US20040175415A1, “Formulations and methods of delivery of intact tocopheryl succinate to humans” (priority 2003, published 2004).
Where two headings read alike, the source gives them in different places.

Tests used:
[1] = room temperature raised to 40° C., man; cited from earlier work
[2] = DRI 2000, oral ingestion; cited from earlier work
[3] = safety of TS treatment in the human subjects; type: in vivo; conditions: human subjects of this study
Procedure: The hydrolyzed products of TS are tocopherol (vitamin E) and succinic acid, an endogenous metabolite produced during the oxidation of carbohydrates, amino acids and fat. The upper safety limit for vitamin E is set at 1000 mg or 1 gm by the most recent issue of DRI (Dietary Reference Intake) for vitamin C, vitamin E selenium and carotenoids. The DRI report was published in 2000 and one of the joint inventors of the present invention served on the committee from which the report was sponsored by the Institute of Medicine, US National Academy of Sciences (Chan et al. 2000). The upper dose limit claimed in the invention herein, is below or around the upper safety limit set at 1 gm by the Institute of Medicine for oral ingestion.

[4] = tested on: colon cancer cell xenografts; conditions: ip, 5 injections of 10 mg/day for 10 days; p < 0.01; cited from earlier work
[5] = tested on: murine melanoma; conditions: ip, 15 injections at 3 mg/mouse, cited from earlier work
[6] = tested on: chemical-induced forestomach cancer; conditions: cited from earlier work
[7] = tested on: colon cancer xenografts; conditions: ip, 4 injections at 5 mg once every 3 days; cited from earlier work
[8] = tested on: human breast cancer cells; conditions: cited from earlier work
[9] = the Merck index; cited from earlier work
[10] = tested on: esterase in the digestive juice; conditions: human (Howritt et al. 1984, Chessman et al. 1995); cited from earlier work
[11] = tested on: human prostate cancer cells; conditions: cited from earlier work
[12] = tested on: several lines of cancer cells in culture; conditions: prior to the induction of apoptosis; cited from earlier work
[13] = intragastric 16 times at 1.25 g/kg
[14] = intragastric 16 times at 2.5 g/kg

O=C(O)c1ccccc1O [salicylate]
increase in dermal crossing [1]: 3 fold

Cc1c(C)c2c(c(C)c1O)CC[C@@](C)(CCC[C@H](C)CCC[C@H](C)CCCC(C)C)O2 [vitamin E, RRR-alpha-tocopherol]
upper safety limit [2]: 1000 mg

tocopheryl succinate [TS]
safety of treatment procedure [3]: no concern regarding the safety
tumor volume [4]: tumor volume reduced
proliferation [5]: Treatment resulted in reduction of
tumor volume ([5]; p < 0.01): Treatment resulted in reduction of
reduction in tumor incident [6, 13]: 18%
reduction in tumor volume [6, 13]: 63%
reduction in tumor incident [6, 14]: 23%
reduction in tumor volume [6, 14]: 81%
less tumor incident ([6]; ip, 8 injections at 20 mg/kg): reduction in tumor volume & 50%
reduction in tumor volume ([6]; ip, 8 injections at 20 mg/kg): ip treatments resulted in 84%
reduction in tumor volume [7]: 75% reduction in tumor volume
angiogensis ([8]; ip injection): ip injection also reduce
expression of VEGF (vascular endothelial growth factor) ([8]; ip injection): angiogensis via the suppressing
reduction in tumor weight ([8]; ip, 7 injections at 3 mg/day): ip injection resulted in 63%
effect on tumor with sc injections ([8]; sc, at 150 mg/kg per day): no effect with sc injections.
solubility in vegetable oils [9]: not readily soluble
fate after oral ingestion [10]: convert to tocopherol
expression of PSA (prostate specific antigen) [11]: strongly suppresses
expression of the androgen receptors [11]: inhibits
cellular lysosomal disruption [12]: major disruption
